Here are results for 21 compounds from US20250361230A1, “LATS Inhibitors and Uses Thereof” (The USA, as Represented by the Secretary, Dept. of Heath …, priority 2022, published 2025).

pIC50: −log10 of the molar value. Where only a bound is given, the exact number is not on record here.

In general, pIC50 refers to the negative decadic logarithm of the IC50, by convention in mol/L.

The test has as its target T1, LATS1 Kinase-NanoLuc fusion in HEK-293 cells (Homo sapiens, UniProt O95835).
T1 construct: host or cells: HEK-293
T1 sequence (O95835 1-1130): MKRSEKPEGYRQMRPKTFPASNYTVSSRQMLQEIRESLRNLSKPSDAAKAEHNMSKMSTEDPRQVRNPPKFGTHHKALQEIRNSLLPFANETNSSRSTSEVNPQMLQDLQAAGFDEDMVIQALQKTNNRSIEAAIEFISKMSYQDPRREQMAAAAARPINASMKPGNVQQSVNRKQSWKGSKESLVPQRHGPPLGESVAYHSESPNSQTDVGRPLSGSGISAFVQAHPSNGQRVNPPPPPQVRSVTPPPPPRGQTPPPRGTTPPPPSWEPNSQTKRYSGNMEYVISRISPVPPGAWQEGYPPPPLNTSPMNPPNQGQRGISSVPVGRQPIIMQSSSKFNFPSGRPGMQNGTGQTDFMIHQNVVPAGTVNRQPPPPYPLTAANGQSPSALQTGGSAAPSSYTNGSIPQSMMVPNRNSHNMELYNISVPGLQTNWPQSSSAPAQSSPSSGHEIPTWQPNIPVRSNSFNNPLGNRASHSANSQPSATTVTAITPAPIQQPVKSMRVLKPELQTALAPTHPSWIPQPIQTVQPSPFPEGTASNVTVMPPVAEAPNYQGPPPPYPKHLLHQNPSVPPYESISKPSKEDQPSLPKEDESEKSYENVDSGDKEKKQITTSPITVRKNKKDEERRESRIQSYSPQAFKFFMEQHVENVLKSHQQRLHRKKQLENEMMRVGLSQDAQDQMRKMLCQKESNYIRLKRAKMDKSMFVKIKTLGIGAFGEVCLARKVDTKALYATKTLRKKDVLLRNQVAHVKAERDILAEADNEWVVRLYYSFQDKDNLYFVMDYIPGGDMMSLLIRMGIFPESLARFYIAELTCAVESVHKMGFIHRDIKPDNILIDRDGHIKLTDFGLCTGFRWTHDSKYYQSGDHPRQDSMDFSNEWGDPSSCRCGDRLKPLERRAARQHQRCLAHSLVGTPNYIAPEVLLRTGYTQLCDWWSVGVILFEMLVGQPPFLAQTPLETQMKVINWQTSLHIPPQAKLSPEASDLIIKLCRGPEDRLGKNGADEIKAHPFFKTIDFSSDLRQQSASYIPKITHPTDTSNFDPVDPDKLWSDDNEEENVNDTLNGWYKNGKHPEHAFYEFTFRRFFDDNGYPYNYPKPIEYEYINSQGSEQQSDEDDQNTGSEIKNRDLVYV
The test can be described thus: NanoBRET target engagement assay in transfected HEK-293 cells, LATS1. The format is cell-based. The following applies: Table 28, NanoBRET, HEK-293 cells; read-out: LATS1 (Cellular) IC50. The text has this: The NanoBRET™ assay measures kinase engagement in real time in the context of the intact cell. The assay uses a Kinase-NanoLuc® fusion vector expressing a kinase protein to which a luciferase tag has been added, a cell-permeant fluorescent NanoBRET™ tracer, a NanoLuc® substrate, and an extracellular NanoLuc® inhibitor. Upon expression of the luciferase-tagged kinase, cells will produce a strong BRET signal only in the presence of the NanoBRET™ tracer. The extracellular NanoLuc® inhibitor ensures that the BRET signal observed emanates only from live cells. Because the BRET signal has tight distance constraints, addition of the test compound will decrease the BRET signal if the compound competes with the NanoBRET™ tracer for binding to the kinase domain. Under the appropriate tracer conditions established by the manufacturer, quantitative intracellular affinity and relative potency can then be determined using Mass Action model equations.
HEK-293 cells were purchased from ATCC. FuGENEHD Transfection Reagent, Kinase-NanoLuc® fusion plasmids, Transfection Carrier DNA, NanoBRET™ Tracers and dilution buffer, NanoBRET™ Nano-Glo Substrate, Extracellular NanoLuc® Inhibitor were obtained from Promega.
Assays were conducted following Promega assay protocol with some modifications as described further below. HEK-293 Cells were transiently transfected with Kinase-NanoLuc® Fusion Vector DNA by FuGENE HD Transfection Reagent. Test compounds were delivered into 384 well assay plate by Echo 550 (Labcyte Inc, Sunnyvale, CA). Transfected cells were harvested and mixed with NanoBRET™ Tracer Reagent and dispensed into 384 well plates and incubated at 37° C. in 5% CO2 cell culture incubator for 1 hour. The NanoBRET™ Nano-Glo Substrate plus Extracellular NanoLuc® Inhibitor Solution were added into the wells of the assay plate and incubated for 2-3 minutes at room temperature. The donor emission wavelength (460 nm) and acceptor emission wavelength (600 nm) were measured in the EnVision plate reader. The BRET Ratios were calculated. BRET Ratio=[(Acceptor sample÷Donor sample)−(Acceptor no-tracer control÷Donor no-tracer control)]. The IC50 values of compounds were calculated with Prism GraphPad program.
• 1. Transient Transfection of HEK-293 Cells NanoLuc® Fusion Vector DNA • 1). Cultivate HEK-293 cells (70-80% confluence) appropriately prior to assay. Trypsinize and collect HEK-293 cells. • 2). Prepare lipid: DNA complexes as follows: • a. Prepare a […] solution of DNA in Opti-MEM™ without serum that consists of the following ratios of carrier DNA and DNA encoding NanoLuc® fusion. 9.0 µg/mL of Transfection Carrier DNA, […] of NanoLuc® fusion vector DNA and 1 mL of Opti-MEM™ without phenol red. Mix thoroughly. • b. Add 30 μl of FuGENE HD Transfection Reagent into each milliliter of DNA mixture to form lipid: DNA complex. • c. Mix by inversion 10 times. • d. Incubate at ambient temperature for 20 minutes to allow complexes to form. • 3). In a sterile, conical tube, mix 1 part of lipid: DNA complex with 20 parts of HEK-293 cells in suspension. Mix gently by inversion 5 times. • 4). Dispense cells+lipid: DNA complex into a sterile tissue culture dish and incubate for 22-24 hours. • 2. Addition of Test Compounds (dry plate shooting): Each test compound is delivered from the compound source plate to the wells of 384-well white NBS plate by Echo 550. • 3. Preparation of Cells with NanoBRET™ Tracer Reagent • 1). Remove medium from dish with transfected HEK-293 cells via aspiration, trypsinize and allow cells to dissociate from the dish. • 2). Neutralize trypsin using medium containing serum and centrifuge at 200× g for 5 minutes to pellet the cells. Adjust the cell density to 2×10^5 cells/mL in Opti-MEM™ without phenol red. • 3). Prepare Complete 20× NanoBRET™ Tracer Reagent with Tracer Dilution Buffer. • 4). Dispense one part of Complete 20× NanoBRET™ Tracer Reagent to 20 parts of cells in the tube. Mix gently by inversion 10 times. • 5). […]
(BRET reads energy transfer from a luciferase to a nearby fluorophore.)
As to `Cc1cc(-c2ccnc3[nH]cc(F)c23)ccc1CN` [Compound 211, (4-(3-fluoro-1H-pyrrolo[2,3-b]pyridin-4-yl)-2-methylphenyl) methanamine], the pIC50 is 5.20.
As for `NCc1ccc(-c2ccnc3[nH]cc(-c4ccccc4)c23)cc1-c1ccccc1` [Compound 219, (5-(3-phenyl-1H-pyrrolo[2,3-b]pyridin-4-yl)-[1,1′-biphenyl]-2-yl)methanamine], the figure is 6.19.
As for `COC(=O)c1c[nH]c2nccc(-c3ccc(CN)cc3)c12` [Compound 223, methyl 4-(4-(aminomethyl)phenyl)-1H-pyrrolo[2,3-b]pyridine-3-carboxylate], the figure is 4.18; as for `Cc1cccc(-c2c[nH]c3nccc(-c4ccc(CN)cc4)c23)c1` [Compound 230, (4-(3-(m-tolyl)-1H-pyrrolo[2,3-b]pyridin-4-yl)phenyl) methanamine], 5.26.
As for `CC(C)(N)c1ccc(-c2ccnc3[nH]cc(F)c23)cc1` [Compound 238, 2-(4-(3-fluoro-1H-pyrrolo[2,3-b]pyridin-4-yl)phenyl)propan-2-amine], the figure is 5.81; as for `NCc1ccc(-c2ccnc3[nH]cc(-c4cccnc4)c23)cc1` [Compound 245, (4-(3-(pyridin-3-yl)-1H-pyrrolo[2,3-b]pyridin-4-yl)phenyl) methanamine], 4.92; as for `NCc1ccc(-c2ccnc3[nH]cc(-c4ccccc4)c23)cc1` [Compound 253, (4-(3-phenyl-1H-pyrrolo[2,3-b]pyridin-4-yl)phenyl) methanamine], 5.53.
`Cc1cc(-c2ccnc3[nH]cc(Cl)c23)ccc1CN` [Compound 254, (4-(3-chloro-1H-pyrrolo[2,3-b]pyridin-4-yl)-2-methylphenyl) methanamine]: the negative logarithm of the IC50 (pIC50) is 6.15.
As for `Cc1cc(-c2ccnc3[nH]ccc23)ccc1CN` [Compound 266, (2-methyl-4-(1H-pyrrolo[2,3-b]pyridin-4-yl)phenyl) methanamine], the figure is 5.17; as for `c1cc(-c2ccc3c(c2)CCNC3)c2cc[nH]c2n1` [Compound 267, 6-(1H-pyrrolo[2,3-b]pyridin-4-yl)-1,2,3,4-tetrahydroiso-quinoline], under 4.30; as for `c1cc(-c2ccc(C3CCCCN3)cc2)c2cc[nH]c2n1` (stereo not drawn) [Compound 271, 4-(4-(piperidin-2-yl)phenyl)-1H-pyrrolo[2,3-b]pyridine], under 4.30.
As to `NCc1ccc(-c2ccnc3[nH]cc(F)c23)cc1` [Compound 275, (4-(3-fluoro-1H-pyrrolo[2,3-b]pyridin-4-yl)phenyl) methanamine], the negative logarithm of the IC50 (pIC50) is 5.00.
Regarding `NCc1ccc(-c2ccnc3[nH]cc(Cl)c23)cc1` [Compound 276, (4-(3-chloro-1H-pyrrolo[2,3-b]pyridin-4-yl)phenyl) methanamine], the pIC50 is 5.55.
For `NCc1ccc(-c2ccnc3[nH]ccc23)cc1C(F)(F)F` [Compound 284, (4-(1H-pyrrolo[2,3-b]pyridin-4-yl)-2-(trifluoromethyl)phenyl) methanamine], the negative logarithm of the IC50 (pIC50) was 4.46.
Take `NCc1ccc(-c2ccnc3[nH]ccc23)cc1` [Compound 287, (4-(1H-pyrrolo[2,3-b]pyridin-4-yl)phenyl) methanamine]: the pIC50 was 4.64.
As for `Cc1cc(-c2ccnc3[nH]cc(F)c23)cc(F)c1[C@@]1(O)[C@H](C)CN(C)C[C@@H]1C` [Compound 304, (3S,4s,5R)-4-(2-fluoro-4-(3-fluoro-1H-pyrrolo[2,3-b]pyridin-4-yl)-6-methylphenyl)-1,3,5-trimethylpiperidin-4-ol], the figure is 7.38.
Next, `Cc1cc(-c2ccnc3[nH]cc(F)c23)cc(F)c1[C@@]1(O)[C@H](C)CN(C(C)C)C[C@@H]1C` [Compound 305, (3S,4s,5R)-4-(2-fluoro-4-(3-fluoro-1H-pyrrolo[2,3-b]pyridin-4-yl)-6-methylphenyl)-1-isopropyl-3,5-dimethylpiperidin-4-ol]: 7.21.
As to `COC(=O)c1c[nH]c2nccc(-c3cc(C)c([C@@]4(O)[C@H](C)CN(C5CCS(=O)(=O)CC5)C[C@@H]4C)c(F)c3)c12` [Compound 309, methyl 4-(4-((3S,4s,5R)-1-(1,1-dioxidotetrahydro-2H-thiopyran-4-yl)-4-hydroxy-3,5-dimethylpiperidin-4-yl)-3-fluoro-5-methylphenyl)-1H-pyrrolo[2,3-b]pyridine-3-carboxylate], the pIC50 was 5.87.
Take `COC(=O)c1c[nH]c2nccc(-c3cc(C)c([C@@]4(O)[C@H](C)CN(C(=O)CN)C[C@@H]4C)c(F)c3)c12` [Compound 310, methyl 4-(3-fluoro-4-((3S,4s,5R)-1-glycyl-4-hydroxy-3,5-dimethylpiperidin-4-yl)-5-methylphenyl)-1H-pyrrolo[2,3-b]pyridine-3-carboxylate]: the negative logarithm of the IC50 (pIC50) was 5.34.
As for `Cc1cc(-c2ccnc3[nH]cc(F)c23)cc(F)c1[C@@]1(O)[C@H](C)CN(C(=O)[C@H](N)CO)C[C@@H]1C` [Compound 312, (R)-2-amino-1-((3S,4R,5R)-4-(2-fluoro-4-(3-fluoro-1H-pyrrolo[2,3-b]pyridin-4-yl)-6-methylphenyl)-4-hydroxy-3,5-dimethylpiperidin-1-yl)-3-hydroxypropan-1-one], the figure is 7.98; as for `Cc1cc(-c2ccnc3[nH]cc(F)c23)cc(F)c1[C@@]1(O)[C@H](C)CN(C(=O)[C@@H](CO)N(C)C)C[C@@H]1C` [Compound 313, (R)-2-(dimethylamino)-1-((3S,4S,5R)-4-(2-fluoro-4-(3-fluoro-1H-pyrrolo[2,3-b]pyridin-4-yl)-6-methylphenyl)-4-hydroxy-3,5-dimethylpiperidin-1-yl)-3-hydroxypropan-1-one], 7.37.
